How the values were obtained:
[1] = biological target: HLA A*6802 (Homo sapiens, UniProt P04439, A269V/D140Y/D185E/E176V/E277Q/E87N/F33Y/G231S/I121R/I166T/I218V/L180W/L300P/L318F/N151K/P208A/P217A/Q86R/R138H/R169H/S129P/T345S/V36M); format: binding
[2] = biological target: HLA B*5101 (Homo sapiens, UniProt P01889, A329T/A93T/A95T/C349S/D138N/D201E/D98Y/E187L/E204Q/E69T/G107R/I218V/K202T/L105A/L119W/N104I/Q94N/R106L/R155S/R180L/S101N/S121T/S35A/S48A/V306I/V36M/Y195H/Y91F); format: binding
[3] = biological target: HLA B*2705 (Homo sapiens, UniProt P01889, D138H/D201E/E176V/E204Q/G107R/H137Y/K202T/N104T/N87E/Q56L/Q94K/R106L/R155S/R180L/S101D/S121N/S48T/Y140D/Y33H/Y91C); format: binding; settings: positional scanning combinatorial 9-mer library; normalized to 1.0 for the best residue at each position
[4] = biological target: HLA B*0702 (Homo sapiens, UniProt P01889); format: binding; settings: positional scanning combinatorial 9-mer library; normalized to 1.0 for the best residue at each position
[5] = biological target: HLA B*0801 (Homo sapiens, UniProt P01889, A93T/A95T/D138N/E176V/E187T/K202T/Q94N/R180D/S35A/V36M/Y33D/Y91F); experiment: biochemical; format: binding
[6] = biological target: HLA B*5801 (Homo sapiens, UniProt P01889, A329T/C349S/D201E/D98Y/E176V/E187L/E204Q/E69T/G107R/I218V/I90N/K202T/L105A/L119I/N104I/N87E/Q89R/Q94S/R106L/R155S/R180L/R86G/S101N/S121R/S35A/S48A/T118I/V127L/V306I/V36M/Y140S/Y91M); format: binding
[7] = biological target: H-2 D^d (Mus musculus, UniProt P01900); format: binding
Chain of H-2 D^d (P01900 whole entry, looked up): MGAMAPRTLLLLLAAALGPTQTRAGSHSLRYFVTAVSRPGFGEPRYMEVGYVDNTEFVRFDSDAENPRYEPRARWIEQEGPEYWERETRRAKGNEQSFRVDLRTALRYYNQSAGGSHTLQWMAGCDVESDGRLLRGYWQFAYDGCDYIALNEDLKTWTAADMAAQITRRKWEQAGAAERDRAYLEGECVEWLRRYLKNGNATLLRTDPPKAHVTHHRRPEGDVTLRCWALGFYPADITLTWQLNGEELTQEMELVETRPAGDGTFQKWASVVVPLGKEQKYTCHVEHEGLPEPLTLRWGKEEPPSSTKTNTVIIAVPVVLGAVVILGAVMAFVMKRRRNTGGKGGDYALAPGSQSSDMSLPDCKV

[8] = biological target: H-2 D^b (Mus musculus, UniProt P01899); format: binding
Chain of H-2 D^b (P01887 21-119): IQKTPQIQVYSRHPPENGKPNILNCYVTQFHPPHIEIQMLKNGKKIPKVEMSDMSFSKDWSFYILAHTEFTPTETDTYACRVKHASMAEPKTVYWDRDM
Chain of H-2 D^b (P01899 25-362): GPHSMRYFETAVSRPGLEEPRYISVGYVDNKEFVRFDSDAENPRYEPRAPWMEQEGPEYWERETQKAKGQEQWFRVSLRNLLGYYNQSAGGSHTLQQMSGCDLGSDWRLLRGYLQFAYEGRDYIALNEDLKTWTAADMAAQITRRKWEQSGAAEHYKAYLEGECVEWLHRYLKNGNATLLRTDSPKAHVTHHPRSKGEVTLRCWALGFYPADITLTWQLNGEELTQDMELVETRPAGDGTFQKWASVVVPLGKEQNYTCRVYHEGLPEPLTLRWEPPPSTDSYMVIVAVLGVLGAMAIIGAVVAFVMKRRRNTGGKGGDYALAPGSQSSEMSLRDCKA

[9] = biological target: HLA B*3501 (Homo sapiens, UniProt P01889, A329T/A93T/A95T/C349S/D201E/D98Y/E176V/E187L/E204Q/E69T/I218V/K202T/L119I/Q94N/R155S/R180L/S121R/S35A/S48A/T118I/V127L/V306I/V36M/Y140S/Y91F); format: binding
[10] = biological target: HLA B*5802 (Homo sapiens, UniProt P01889, A329T/C349S/D201E/D98Y/E176V/E187L/E204Q/E69T/G107R/I218V/I90N/K202T/L105A/N104I/N87E/Q89R/Q94S/R106L/R155S/R180L/R86G/S101N/S121W/S35A/S48A/V127L/V306I/V36M/Y140S/Y91M); format: binding
[11] = biological target: HLA B*1503 (Homo sapiens, UniProt P01889, A329T/A93T/A95T/C349S/D201E/D98Y/E187L/E204Q/K202T/N87E/Q94N/R155S/R180L/S121R/S35A/V306I/V36M/Y140S/Y91S); experiment: biochemical; format: binding
[12] = biological target: HLA B*5301 (Homo sapiens, UniProt P01889, A329T/A93T/A95T/C349S/D201E/D98Y/E176V/E187L/E204Q/E69T/G107R/I218V/K202T/L105A/L119I/N104I/Q94N/R106L/R155S/R180L/S101N/S121R/S35A/S48A/T118I/V127L/V306I/V36M/Y140S/Y91F); format: binding
[13] = biological target: HLA A*0201 (Homo sapiens, UniProt P04439, D140Y/D185E/D98H/E176V/E277Q/G131W/G231S/I119V/I121R/I166T/I218V/L300P/L318F/N151K/N90K/P208A/P217A/Q86G/Q94H/R138H/R169H/T345S); settings: positional scanning combinatorial 9-mer library; normalized to 1.0 for the best residue at each position
[14] = biological target: HLA B*5401 (Homo sapiens, UniProt P01889, A329T/C349S/D138N/D201E/E176V/E187T/E204Q/E69G/I76V/K202T/L119W/R155S/R180L/S121T/S35A/S48A/V127L/V306I/V36M/Y140L); format: binding
[15] = biological target: HLA B*1501 (Homo sapiens, UniProt P01889, A329T/A93T/A95T/C349S/D201E/D98Y/E187L/E204Q/E69M/E70A/K202T/N87E/Q94N/R155S/R180W/S121R/S35A/S48A/V306I/V36M/Y140S/Y91S); experiment: biochemical; format: binding
[16] = biological target: H-2 K^k (Mus musculus, UniProt P04223); format: binding
Chain of H-2 K^k (P01887 21-119): as the sequence (P01887 21-119) above
Chain of H-2 K^k (P04223 22-369): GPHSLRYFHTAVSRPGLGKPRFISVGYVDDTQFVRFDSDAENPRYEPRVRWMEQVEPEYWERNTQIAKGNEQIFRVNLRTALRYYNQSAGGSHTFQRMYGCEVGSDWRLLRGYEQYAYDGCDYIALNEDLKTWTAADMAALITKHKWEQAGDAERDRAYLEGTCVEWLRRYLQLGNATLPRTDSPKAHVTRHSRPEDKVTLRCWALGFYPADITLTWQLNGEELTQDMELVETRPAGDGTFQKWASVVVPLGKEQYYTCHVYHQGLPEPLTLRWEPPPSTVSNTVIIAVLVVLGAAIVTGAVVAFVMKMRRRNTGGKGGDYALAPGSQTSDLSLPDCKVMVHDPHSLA

[17] = biological target: HLA A*3001 (Homo sapiens, UniProt P04439, D140H/D185E/E176W/F33S/G80R/H175R/K168Q/R138E/R41S); experiment: biochemical; format: binding
[18] = biological target: HLA A*3201 (Homo sapiens, UniProt P04439, A270S/D101S/D185E/E176V/E277Q/F133L/G103R/G107R/G231S/H175R/I121M/I218V/I322F/K168Q/L105A/L300P/L318F/M331R/P208A/P217A/Q94H/R106L/R138Q/S129P/T104I/T323A/T345S/V100E/V321M/V358M); experiment: biochemical; format: binding

Sequence | Normalized average relative binding affinity (ARB), HLA A*6802 [1] | Normalized average relative binding affinity (ARB), HLA B*5101 [2] | Normalized average relative binding affinity (ARB), HLA B*2705 [3] | Normalized average relative binding affinity (ARB), HLA B*0702 [4] | Normalized average relative binding affinity (ARB), HLA B*0801 [5] | Normalized average relative binding affinity (ARB), HLA B*5801 [6] | Normalized average relative binding affinity (ARB), H-2 Dd [7] | Normalized average relative binding affinity (ARB), H-2 Db [8] | Normalized average relative binding affinity (ARB), HLA B*3501 [9] | Normalized average relative binding affinity (ARB), HLA B*5802 [10] | Normalized average relative binding affinity (ARB), HLA B*1503 [11] | Normalized average relative binding affinity (ARB), HLA B*5301 [12] | Normalized average relative binding affinity (ARB), HLA A*0201 [13] | Normalized average relative binding affinity (ARB), HLA B*5401 [14] | Normalized average relative binding affinity (ARB), HLA B*1501 [15] | Normalized average relative binding affinity (ARB), H-2 Kk [16] | Normalized average relative binding affinity (ARB), HLA A*3001 [17] | Normalized average relative binding affinity (ARB), HLA A*3201 [18]
XMXXXXXXX [3064.0031] | 0.055 | 0.039 | 0.010 | 0.0028 | 0.70 | 0.0033 | 0.018 | 0.73 | 0.035 | 0.17 | 0.57 | 0.040 | 0.19 | 0.0072 | 0.96 | 0.012 | 0.70 | 0.63
XXPXXXXXX [3064.0053] | 0.043 | 0.42 | 0.027 | 0.014 | 0.072 | 0.042 | 1.0 | 0.38 | 0.089 | 0.047 | 0.058 | 0.010 | 0.056 | 0.013 | 0.32 | 0.035 | 0.0036 | 0.13
XXFXXXXXX [3064.0045] | 0.82 | 0.65 | 1.0 | 0.067 | 0.19 | 0.52 | 0.0072 | 0.099 | 0.49 | 0.41 | 0.62 | 0.19 | 0.63 | 0.11 | 0.83 | 0.39 | 0.041 | 0.98
